{
  "source": "patent US12708116B2",
  "about": "“Herbicidal compositions comprising 2,4-D” (BASF SE, priority 2023, dated 2026)",
  "test_in_all_cases": "Post-emergence application in field trials",
  "key": {"[1]": {"system": "HORVW", "settings": "growth stage 23-29, height 20-25 cm"}, "[2]": {"system": "ECHCG", "assay_type": "in vivo, Echinochloa crus-galli"}, "[3]": {"system": "CYPES", "settings": "21 DAT, water volume 140 l/ha"}, "[4]": {"system": "SETVE", "settings": "Example 6, g ai/ha A-1 12.5, B-5 1066, C-11 400, growth stage 21-23, height 10-15 cm"}, "[5]": {"system": "DATST", "settings": "Example 6; 21 DAT; g ai/ha A-1 12.5, B-5 1066, C-11 400"}, "[6]": {"system": "ZEAMX", "settings": "growth stage 15-16"}, "[7]": {"system": "DIGSA"}, "[8]": {"system": "AMAPA", "settings": "14 DAT, growth stage 12-24, height 5-30 cm, water volume 140 l/ha"}, "[9]": {"system": "SETVI", "assay_type": "in vivo, Setaria viridis", "settings": "15 DAT; g ai/ha A-1 12.5, B-5 1066, C-10 840; growth stage 13-19; height 2-18 cm; water volume 140 l/ha"}, "[10]": {"settings": "Example 7, 28 DAT, g ai/ha A-1 12.5, B-4 1066, C-11 400"}, "[11]": {"settings": "Example 7, 28 DAT, g ai/ha A-1 12.5, B-4 1066, C-11 400, growth stage 23-30, height 15-20 cm"}, "[12]": {"settings": "Example 7, 28 DAT, g ai/ha A-1 12.5, B-4 1066, C-11 400, height 50-60 cm"}, "[13]": {"settings": "Example 9, 21 DAT, g ai/ha A-1 12.5, B-4 1066, C-12 252"}, "[14]": {"settings": "Example 9, 28 DAT, g ai/ha A-1 12.5, B-4 1066, C-12 252, growth stage 23-30, height 15-20 cm"}, "[15]": {"settings": "Example 9, 28 DAT, g ai/ha A-1 12.5, B-4 1066, C-12 252, height 50-60 cm"}, "[16]": {"settings": "Example 11, 21 DAT, g ai/ha A-1 12.5, B-4 1066, C-4 12.5"}, "[17]": {"settings": "Example 11, 21 DAT, g ai/ha A-1 12.5, B-4 1066, C-4 12.5, height 50-60 cm"}},
  "data": [
    {"smiles": "CP(=O)(O)CCC(N)C(=O)O", "note": "(centres unmarked) [C-11, glufosinate-ammonium]", "values": [
      {"measurement": "% Herbicidal activity", "setting": "[1]; Example 6, 28 DAT, g ai/ha A-1 12.5, B-5 1066, C-11 400", "result": 30, "unit": "%"},
      {"measurement": "% Herbicidal activity", "setting": "[1]; [10]", "result": 10, "unit": "%"},
      {"measurement": "% Herbicidal activity", "setting": "[2]; Example 6, 7 DAT, g ai/ha A-1 12.5, B-5 1066, C-11 400, growth stage 23-30, height 15-20 cm", "result": 30, "unit": "%"},
      {"measurement": "% Herbicidal activity", "setting": "[2]; Example 6, 28 DAT, g ai/ha A-1 12.5, B-5 1066, C-11 400, growth stage 23-30, height 15-20 cm", "result": 70, "unit": "%"},
      {"measurement": "% Herbicidal activity", "setting": "[2]; [11]", "result": 60, "unit": "%"},
      {"measurement": "% Herbicidal activity", "setting": "[3]; g ai/ha A-1 12.5, B-5 1066, C-11 655", "result": 18, "unit": "%"},
      {"measurement": "% Herbicidal activity", "setting": "[3]; g ai/ha A-1 50, B-5 1066, C-11 655", "result": 18, "unit": "%"},
      {"measurement": "% Herbicidal activity", "setting": "[4]; 7 DAT", "result": 55, "unit": "%"},
      {"measurement": "% Herbicidal activity", "setting": "[4]; 21 DAT", "result": 40, "unit": "%"},
      {"measurement": "% Herbicidal activity", "setting": "[5]", "result": 50, "unit": "%"},
      {"measurement": "% Herbicidal activity", "setting": "[6]; Example 6, 7 DAT, g ai/ha A-1 12.5, B-5 1066, C-11 400, height 25-30 cm", "result": 40, "unit": "%"},
      {"measurement": "% Herbicidal activity", "setting": "[6]; Example 6, 28 DAT, g ai/ha A-1 12.5, B-5 1066, C-11 400, height 50-60 cm", "result": 70, "unit": "%"},
      {"measurement": "% Herbicidal activity", "setting": "[6]; [12]", "result": 40, "unit": "%"},
      {"measurement": "% Herbicidal activity", "setting": "[7]; 21 DAT, g ai/ha A-1 12.5, B-5 1066, C-11 655, height 2-8 cm, water volume 140 l/ha", "result": 49, "unit": "%"},
      {"measurement": "% Herbicidal activity", "setting": "[7]; 21 DAT, g ai/ha A-1 25, B-5 1066, C-11 655, height 2-8 cm, water volume 140 l/ha", "result": 49, "unit": "%"},
      {"measurement": "% Herbicidal activity", "setting": "[7]; 21 DAT, g ai/ha A-1 50, B-5 1066, C-11 655, height 2-8 cm, water volume 140 l/ha", "result": 49, "unit": "%"},
      {"measurement": "% Herbicidal activity", "setting": "[7]; Example 6, 7 DAT, g ai/ha A-1 12.5, B-5 1066, C-11 400, growth stage 21-22, height 15-20 cm", "result": 25, "unit": "%"},
      {"measurement": "% Herbicidal activity", "setting": "[7]; Example 6, 21 DAT, g ai/ha A-1 12.5, B-5 1066, C-11 400, growth stage 21-22, height 15-20 cm", "result": 20, "unit": "%"}
    ]},
    {"smiles": "CP(=O)(O)CC[C@H](N)C(=O)O.N", "note": "[C-12, glufosinate-P-ammonium]", "values": [
      {"measurement": "% Herbicidal activity", "setting": "[1]; Example 8, 21 DAT, g ai/ha A-1 12.5, B-5 1066, C-12 252", "result": 20, "unit": "%"},
      {"measurement": "% Herbicidal activity", "setting": "[1]; [13]", "result": 60, "unit": "%"},
      {"measurement": "% Herbicidal activity", "setting": "[2]; Example 8, 7 DAT, g ai/ha A-1 12.5, B-5 1066, C-12 252, growth stage 23-30, height 15-20 cm", "result": 50, "unit": "%"},
      {"measurement": "% Herbicidal activity", "setting": "[2]; Example 8, 21 DAT, g ai/ha A-1 12.5, B-5 1066, C-12 252, growth stage 23-30, height 15-20 cm", "result": 70, "unit": "%"},
      {"measurement": "% Herbicidal activity", "setting": "[2]; Example 8, 28 DAT, g ai/ha A-1 12.5, B-5 1066, C-12 252, growth stage 23-30, height 15-20 cm", "result": 60, "unit": "%"},
      {"measurement": "% Herbicidal activity", "setting": "[2]; [14]", "result": 60, "unit": "%"},
      {"measurement": "% Herbicidal activity", "setting": "[6]; Example 8, 28 DAT, g ai/ha A-1 12.5, B-5 1066, C-12 252, height 50-60 cm", "result": 70, "unit": "%"},
      {"measurement": "% Herbicidal activity", "setting": "[6]; [15]", "result": 60, "unit": "%"}
    ]},
    {"smiles": "O=C(O)CNCP(=O)(O)O", "note": "[C-10, glyphosate-potassium]", "values": [
      {"measurement": "% Herbicidal activity", "setting": "[2]; 13 DAT, g ai/ha A-1 12.5, B-5 1066, C-10 840, growth stage 21-26, height 15-30 cm, water volume 187 l/ha", "result": 90, "unit": "%"},
      {"measurement": "% Herbicidal activity", "setting": "[2]; 13 DAT, g ai/ha A-1 25, B-5 1066, C-10 840, growth stage 21-26, height 15-30 cm, water volume 187 l/ha", "result": 90, "unit": "%"},
      {"measurement": "% Herbicidal activity", "setting": "[2]; 13 DAT, g ai/ha A-1 50, B-5 1066, C-10 840, growth stage 21-26, height 15-30 cm, water volume 187 l/ha", "result": 90, "unit": "%"},
      {"measurement": "% Herbicidal activity", "setting": "[8]; g ai/ha A-1 12.5, B-5 1066, C-10 840", "result": 22, "unit": "%"},
      {"measurement": "% Herbicidal activity", "setting": "[8]; g ai/ha A-1 25, B-5 1066, C-10 840", "result": 22, "unit": "%"},
      {"measurement": "% Herbicidal activity", "setting": "[7]; 15 DAT, g ai/ha A-1 12.5, B-5 1066, C-10 840, growth stage 13-19, height 2-13 cm, water volume 140 l/ha", "result": 93, "unit": "%"},
      {"measurement": "% Herbicidal activity", "setting": "[9]", "result": 93, "unit": "%"}
    ]},
    {"smiles": "CNC.O=C(O)COc1ccc(Cl)cc1Cl", "note": "[B-4, 2,4-D-dimethylammonium]", "values": [
      {"measurement": "% Herbicidal activity", "setting": "[1]; Example 5, 7 DAT, g ai/ha A-1 12.5, B-4 1066", "result": 0, "unit": "%"},
      {"measurement": "% Herbicidal activity", "setting": "[1]; [10]", "result": 0, "unit": "%"},
      {"measurement": "% Herbicidal activity", "setting": "[1]; [13]", "result": 0, "unit": "%"},
      {"measurement": "% Herbicidal activity", "setting": "[1]; [16]", "result": 0, "unit": "%"},
      {"measurement": "% Herbicidal activity", "setting": "[2]; [11]", "result": 0, "unit": "%"},
      {"measurement": "% Herbicidal activity", "setting": "[2]; [14]", "result": 0, "unit": "%"},
      {"measurement": "% Herbicidal activity", "setting": "[6]; Example 5, 21 DAT, g ai/ha A-1 12.5, B-4 1066, height 50-60 cm", "result": 0, "unit": "%"},
      {"measurement": "% Herbicidal activity", "setting": "[6]; [12]", "result": 0, "unit": "%"},
      {"measurement": "% Herbicidal activity", "setting": "[6]; [15]", "result": 0, "unit": "%"},
      {"measurement": "% Herbicidal activity", "setting": "[6]; [17]", "result": 0, "unit": "%"}
    ]},
    {"smiles": "C#CCN1C(=O)C(F)(F)Oc2cc(F)c(-n3c(=O)n(C)c(=S)n(C)c3=O)cc21", "note": "[C-4, trifludimoxazin]", "values": [
      {"measurement": "% Herbicidal activity", "setting": "[1]; Example 10, 21 DAT, g ai/ha A-1 12.5, B-5 1066, C-4 12.5", "result": 30, "unit": "%"},
      {"measurement": "% Herbicidal activity", "setting": "[1]; [16]", "result": 20, "unit": "%"},
      {"measurement": "% Herbicidal activity", "setting": "[2]; Example 10, 21 DAT, g ai/ha A-1 12.5, B-5 1066, C-4 12.5, growth stage 23-30, height 15-20 cm", "result": 30, "unit": "%"},
      {"measurement": "% Herbicidal activity", "setting": "[6]; [17]", "result": 30, "unit": "%"}
    ]}
  ]
}
